Assay results as given in US9346798B2, “Dihydrobenzoxazine and tetrahydroquinoxaline sodium channel inhibitors” (AMGEN INC., priority 2012, dated 2016).

Key:
Format in all cases: cell-based
Nav 1.7 [1] = molecular target: T1, Nav 1.7 (Homo sapiens (Human), UniProt Q15858); experiment: Nav 1.7 in vitro PX assay, PatchXpress whole cell voltage clamp; conditions: HEK 293 cells stably transfected with human Nav1.7; for IC50: partially inactivated state (20 to 50% inactivation)
How it was run: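 HEK293 cells stably expressing human Nav1.7, whole-cell voltage clamp at a holding potential giving 20–50% inactivation; currents elicited by 20 msec pulses to −10 mV at 0.1 Hz.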

Nav 1.5 = Nav 1.5 (Homo sapiens (Human), UniProt Q14524); experiment: Nav 1.5 in vitro assay, IonWorks Quattro (IWQ) population patch-clamp; conditions: HEK 293 cells stably transfected with Nav 1.5; 26th pulse to -20 mV
Nav 1.7 [2] = molecular target: T1, Nav 1.7; experiment: Nav 1.7 in vitro assay, IonWorks Quattro (IWQ) population patch-clamp; conditions: HEK 293 cells stably transfected with Nav 1.7; 26th pulse to -20 mV
Procedure: Nav 1.7 and Nav 1.5 In Vitro Assays
HEK 293 cells stably transfected with either Nav 1.7 or with Nav 1.5 were recorded in population patch-clamp mode with the IonWorks® Quattro automated electrophysiology system in accordance with the manufacturer's specifications (Molecular Devices, LLC, Sunnyvale, Calif.). Sodium channel currents were measured in response to a train of depolarizations that induced successively greater inactivation.
Cells were held at −110 mV for three seconds (Nav 1.7) or half a second (Nav 1.5) from a holding voltage of −15 mV, then put through a series of 26 pulses of 150 msec duration to −20 mV at a frequency of 5 Hz. Cells were then left unclamped for a period of 3 to 8 minutes while a single concentration of test compound was added. Cells were then reclamped and put through the same voltage protocol. Current at the end of the 26th pulse to −20 mV was subtracted from the peak current evoked by the 26th pulse to −20 mV to correct for leak current. Percent block was calculated for each concentration in duplicate, and IC50 curves were fitted to percent block as a function of concentration.

T1 sequence (Q15858 whole entry): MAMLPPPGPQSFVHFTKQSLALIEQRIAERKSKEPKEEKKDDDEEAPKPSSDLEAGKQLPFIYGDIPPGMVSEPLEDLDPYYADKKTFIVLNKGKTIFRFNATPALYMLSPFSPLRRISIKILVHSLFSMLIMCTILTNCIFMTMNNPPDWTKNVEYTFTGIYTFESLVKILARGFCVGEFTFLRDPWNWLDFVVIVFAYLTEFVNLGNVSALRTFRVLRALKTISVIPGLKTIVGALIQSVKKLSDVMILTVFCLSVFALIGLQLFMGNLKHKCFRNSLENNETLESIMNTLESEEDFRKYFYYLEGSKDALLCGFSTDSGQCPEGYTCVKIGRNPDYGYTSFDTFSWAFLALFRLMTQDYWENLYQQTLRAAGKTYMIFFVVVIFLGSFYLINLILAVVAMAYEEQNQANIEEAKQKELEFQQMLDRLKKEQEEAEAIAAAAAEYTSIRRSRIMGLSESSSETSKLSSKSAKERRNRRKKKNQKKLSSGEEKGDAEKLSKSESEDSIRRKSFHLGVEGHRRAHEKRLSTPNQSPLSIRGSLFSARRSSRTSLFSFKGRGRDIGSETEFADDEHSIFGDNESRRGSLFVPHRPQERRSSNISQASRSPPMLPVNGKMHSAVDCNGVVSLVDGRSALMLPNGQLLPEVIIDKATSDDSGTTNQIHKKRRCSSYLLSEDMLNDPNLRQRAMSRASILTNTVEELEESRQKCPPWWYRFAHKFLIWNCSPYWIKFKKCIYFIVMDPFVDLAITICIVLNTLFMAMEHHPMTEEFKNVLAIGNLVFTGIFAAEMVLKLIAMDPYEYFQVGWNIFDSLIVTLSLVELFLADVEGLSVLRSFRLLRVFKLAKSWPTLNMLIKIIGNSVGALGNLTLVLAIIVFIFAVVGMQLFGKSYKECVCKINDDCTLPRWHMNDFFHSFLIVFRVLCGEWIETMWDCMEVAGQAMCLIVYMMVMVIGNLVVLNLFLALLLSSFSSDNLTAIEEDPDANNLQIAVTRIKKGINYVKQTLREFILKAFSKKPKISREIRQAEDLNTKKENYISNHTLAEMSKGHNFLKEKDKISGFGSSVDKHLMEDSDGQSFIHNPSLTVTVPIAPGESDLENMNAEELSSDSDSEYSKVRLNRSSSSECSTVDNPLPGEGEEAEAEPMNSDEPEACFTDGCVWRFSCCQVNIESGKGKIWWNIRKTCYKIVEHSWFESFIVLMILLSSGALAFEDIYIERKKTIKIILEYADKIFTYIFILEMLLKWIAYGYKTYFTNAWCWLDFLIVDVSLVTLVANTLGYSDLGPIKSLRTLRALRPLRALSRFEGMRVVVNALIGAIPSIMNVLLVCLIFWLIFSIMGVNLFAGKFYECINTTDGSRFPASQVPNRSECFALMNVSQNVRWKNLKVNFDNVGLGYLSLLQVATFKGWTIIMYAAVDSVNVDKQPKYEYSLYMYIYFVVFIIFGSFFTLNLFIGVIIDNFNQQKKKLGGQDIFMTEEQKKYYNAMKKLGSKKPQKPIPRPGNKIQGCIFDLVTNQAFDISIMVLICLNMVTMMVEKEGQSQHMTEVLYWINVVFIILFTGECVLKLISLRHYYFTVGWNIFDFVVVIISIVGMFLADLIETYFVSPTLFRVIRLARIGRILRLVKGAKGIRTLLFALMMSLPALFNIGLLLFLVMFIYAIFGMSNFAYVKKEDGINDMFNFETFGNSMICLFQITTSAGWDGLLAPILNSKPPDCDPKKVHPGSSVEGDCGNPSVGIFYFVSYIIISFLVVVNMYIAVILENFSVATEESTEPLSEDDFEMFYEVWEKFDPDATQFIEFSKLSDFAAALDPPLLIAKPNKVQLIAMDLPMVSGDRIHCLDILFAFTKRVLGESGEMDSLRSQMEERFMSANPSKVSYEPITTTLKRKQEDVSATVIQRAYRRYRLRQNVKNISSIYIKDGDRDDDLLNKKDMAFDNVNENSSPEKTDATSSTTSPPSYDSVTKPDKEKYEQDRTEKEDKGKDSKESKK
Nav 1.5, sequence (Q14524 whole entry): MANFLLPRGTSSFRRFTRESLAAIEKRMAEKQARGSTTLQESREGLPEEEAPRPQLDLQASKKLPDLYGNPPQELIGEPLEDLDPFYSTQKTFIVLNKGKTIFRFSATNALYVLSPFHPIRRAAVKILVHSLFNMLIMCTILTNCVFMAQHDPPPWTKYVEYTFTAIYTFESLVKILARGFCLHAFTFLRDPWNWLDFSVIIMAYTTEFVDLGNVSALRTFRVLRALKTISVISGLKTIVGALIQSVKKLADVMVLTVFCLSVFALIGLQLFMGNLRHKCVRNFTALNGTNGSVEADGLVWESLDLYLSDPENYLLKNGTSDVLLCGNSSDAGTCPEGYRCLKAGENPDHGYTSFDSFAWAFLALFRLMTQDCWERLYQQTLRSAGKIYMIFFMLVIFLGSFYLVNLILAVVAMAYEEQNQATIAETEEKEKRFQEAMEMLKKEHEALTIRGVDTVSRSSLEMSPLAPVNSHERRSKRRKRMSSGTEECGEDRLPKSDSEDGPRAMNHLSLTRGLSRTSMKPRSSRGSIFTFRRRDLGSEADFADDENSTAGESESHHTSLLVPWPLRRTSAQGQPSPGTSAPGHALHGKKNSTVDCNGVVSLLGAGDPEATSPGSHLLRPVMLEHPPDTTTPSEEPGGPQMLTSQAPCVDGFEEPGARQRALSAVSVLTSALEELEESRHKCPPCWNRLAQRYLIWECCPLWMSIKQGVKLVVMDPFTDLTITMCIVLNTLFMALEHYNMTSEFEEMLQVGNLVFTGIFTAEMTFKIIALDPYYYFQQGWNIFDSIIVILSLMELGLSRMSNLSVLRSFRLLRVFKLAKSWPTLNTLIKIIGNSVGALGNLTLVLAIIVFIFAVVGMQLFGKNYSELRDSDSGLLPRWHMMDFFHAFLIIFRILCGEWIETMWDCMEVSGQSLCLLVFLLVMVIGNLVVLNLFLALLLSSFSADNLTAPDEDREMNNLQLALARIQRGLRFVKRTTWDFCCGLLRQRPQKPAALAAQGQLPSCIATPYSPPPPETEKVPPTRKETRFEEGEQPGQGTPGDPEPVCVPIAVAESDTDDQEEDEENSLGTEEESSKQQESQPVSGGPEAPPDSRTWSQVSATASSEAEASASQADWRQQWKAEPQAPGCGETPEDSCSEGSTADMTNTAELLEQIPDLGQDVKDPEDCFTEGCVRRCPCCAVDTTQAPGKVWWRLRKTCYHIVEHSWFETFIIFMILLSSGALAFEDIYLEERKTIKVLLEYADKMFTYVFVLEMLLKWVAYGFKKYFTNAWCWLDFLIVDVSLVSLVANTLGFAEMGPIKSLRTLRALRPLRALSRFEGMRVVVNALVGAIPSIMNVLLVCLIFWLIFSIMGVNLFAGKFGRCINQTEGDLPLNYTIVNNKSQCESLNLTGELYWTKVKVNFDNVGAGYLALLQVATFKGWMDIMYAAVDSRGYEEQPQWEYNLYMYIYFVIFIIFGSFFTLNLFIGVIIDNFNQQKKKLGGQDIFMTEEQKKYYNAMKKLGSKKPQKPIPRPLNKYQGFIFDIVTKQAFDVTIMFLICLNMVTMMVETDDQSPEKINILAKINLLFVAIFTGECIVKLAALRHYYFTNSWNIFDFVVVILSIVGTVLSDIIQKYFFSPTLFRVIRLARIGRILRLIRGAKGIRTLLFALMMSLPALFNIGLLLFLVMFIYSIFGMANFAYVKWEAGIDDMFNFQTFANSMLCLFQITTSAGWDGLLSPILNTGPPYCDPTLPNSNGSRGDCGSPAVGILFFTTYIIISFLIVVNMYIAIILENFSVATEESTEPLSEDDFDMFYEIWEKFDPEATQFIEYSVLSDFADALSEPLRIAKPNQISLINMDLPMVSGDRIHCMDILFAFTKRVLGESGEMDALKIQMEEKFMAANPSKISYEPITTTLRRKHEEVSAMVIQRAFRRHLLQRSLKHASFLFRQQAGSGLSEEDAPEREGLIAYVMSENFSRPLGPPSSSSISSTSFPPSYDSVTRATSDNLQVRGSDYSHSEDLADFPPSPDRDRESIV

Row | Structure (SMILES) | inhibition at 4.9 µM (Nav 1.7 [1]; HEK293, values marked *, 4.9 μM, read-out: Nav 1.7 PX percent inhibition at 4.9 μM) | IC50 (Nav 1.5) | IC50 (Nav 1.7 [2]) | IC50 (Nav 1.7 [1])
1 | O=S(=O)(Nc1ccc(F)cn1)c1ccc2c(c1)OCCN2c1ccc(C(F)(F)F)cc1Cl [Example 17, 4-(2-Chloro-4-(Trifluoromethyl)Phenyl)-N-(5-Fluoropyridin-2-Yl)-3,4-Dihydro-2H-Benzo[B][1,4]Oxazine-7-Sulfonamide] | 24.1% | > 10 µM | 3630 nM | 
2 | O=S(=O)(Nc1ncns1)c1ccc2c(c1)NCCN2c1ccc(C(F)(F)F)cc1Cl [Example 18, 1-(2-Chloro-4-(Trifluoromethyl)Phenyl)-N-(1,2,4-Thiadiazol-5-Yl)-1,2,3,4-Tetrahydroquinoxaline-6-Sulfonamide] |  | > 10 µM | 1040 nM | 946 nM
3 | CN1CCN(c2ccc(C(F)(F)F)cc2Cl)c2ccc(S(=O)(=O)Nc3ncns3)cc21 [Example 19, 1-(2-Chloro-4-(Trifluoromethyl)Phenyl)-4-Methyl-N-(1,2,4-Thiadiazol-5-Yl)-1,2,3,4-Tetrahydroquinoxaline-6-Sulfonamide] |  | > 10 µM | 1180 nM | 4890 nM
4 | O=S(=O)(Nc1ncns1)c1ccc2c(c1)OCCN2c1ccc(C(F)(F)F)cc1-c1cccnc1 [Example 21, 4-(2-(Pyridin-3-Yl)-4-(Trifluoromethyl)Phenyl)-N-(1,2,4-Thiadiazol-5-Yl)-3,4-Dihydro-2H-Benzo[B][1,4]Oxazine-7-Sulfonamide] |  | 1.33 µM | 15.8 nM | 162 nM
5 | CN1CC=C(c2cc(C(F)(F)F)ccc2N2CCOc3cc(S(=O)(=O)Nc4ncns4)ccc32)CC1 [Example 22, 4-(2-(1-Methyl-1,2,3,6-Tetrahydropyridin-4-Yl)-4-(Trifluoromethyl)Phenyl)-N-(1,2,4-Thiadiazol-5-Yl)-3,4-Dihydro-2H-Benzo[B][1,4]Oxazine-7-Sulfonamide 2,2,2-Trifluoroacetate] |  | > 10 µM | 10.5 nM | 134 nM
6 | O=S(=O)(Nc1ncns1)c1ccc2c(c1)OCCN2c1ccc(C(F)(F)F)cc1-c1cncnc1 [Example 23, 4-(2-(Pyrimidin-5-Yl)-4-(Trifluoromethyl)Phenyl)-N-(1,2,4-Thiadiazol-5-Yl)-3,4-Dihydro-2H-Benzo[B][1,4]Oxazine-7-Sulfonamide] |  | 5.41 µM | 29.8 nM | 659 nM
7 | O=S(=O)(Nc1ncco1)c1ccc2c(c1)OCCN2c1ccc(C(F)(F)F)cc1Cl [Example 24, 4-(2-Chloro-4-(Trifluoromethyl)Phenyl)-N-(Oxazol-2-Yl)-3,4-Dihydro-2H-Benzo[B][1,4]Oxazine-7-Sulfonamide] |  | > 10 µM | 834 nM | 4270 nM
8 | O=S(=O)(Nc1ncns1)c1ccc2c(c1)OCCN2c1ccc(C(F)(F)F)cc1C1=CCOCC1 [Example 25, 4-(2-(3,6-Dihydro-2H-Pyran-4-Yl)-4-(Trifluoromethyl)Phenyl)-N-(1,2,4-Thiadiazol-5-Yl)-3,4-Dihydro-2H-Benzo[B][1,4]Oxazine-7-Sulfonamide] |  | 0.214 µM | 12.3 nM | 146 nM
9 | O=S(=O)(Nc1ncns1)c1ccc2c(c1)OCCN2c1ccc(C(F)(F)F)cc1-c1ccncc1 [Example 26, 4-(2-(Pyridin-4-Yl)-4-(Trifluoromethyl)Phenyl)-N-(1,2,4-Thiadiazol-5-Yl)-3,4-Dihydro-2H-Benzo[B][1,4]Oxazine-7-Sulfonamide] |  | 0.306 µM | 10.5 nM | 102 nM
10 | O=S(=O)(Nc1cccnn1)c1ccc2c(c1)OCCN2c1ccc(C(F)(F)F)cc1Cl [Example 27, 4-(2-Chloro-4-(Trifluoromethyl)Phenyl)-N-(Pyridazin-3-Yl)-3,4-Dihydro-2H-Benzo[B][1,4]Oxazine-7-Sulfonamide] |  | > 10 µM | 1250 nM | 10700 nM
11 | O=S(=O)(Nc1nncs1)c1ccc2c(c1)OCCN2c1ccc(C(F)(F)F)cc1Cl [Example 28, 4-(2-Chloro-4-(Trifluoromethyl)Phenyl)-N-(1,3,4-Thiadiazol-2-Yl)-3,4-Dihydro-2H-Benzo[B][1,4]Oxazine-7-Sulfonamide] |  | > 10 µM | 656 nM | 2650 nM
